One compound from patent US6958221B2, “Cell flow apparatus and method for real-time measurements of patient cellular responses” (Caliper Life Sciences, Inc., priority 1996, dated 2005) can be followed below.

In this test the target is T1, endothelin subtype A receptor ETAR (Homo sapiens, UniProt P25101).
T1 construct: TE-671 cells, human medulloblastoma (ATCC CRL 8805), naturally express endothelin subtype A receptor ETAR; host or cells: TE-671 human medulloblastoma cells
T1 sequence (P25101 21-427): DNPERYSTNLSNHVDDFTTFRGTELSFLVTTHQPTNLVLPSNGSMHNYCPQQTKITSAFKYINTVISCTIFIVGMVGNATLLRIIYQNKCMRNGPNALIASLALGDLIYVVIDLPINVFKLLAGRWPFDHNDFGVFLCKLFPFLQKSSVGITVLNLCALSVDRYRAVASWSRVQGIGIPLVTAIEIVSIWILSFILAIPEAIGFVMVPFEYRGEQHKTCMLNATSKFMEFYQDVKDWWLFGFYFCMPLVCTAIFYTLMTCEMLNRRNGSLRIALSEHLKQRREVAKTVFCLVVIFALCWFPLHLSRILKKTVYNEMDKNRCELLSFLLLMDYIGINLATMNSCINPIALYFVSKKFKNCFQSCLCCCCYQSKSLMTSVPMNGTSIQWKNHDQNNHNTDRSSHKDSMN
The test can be described thus: ET-1 induced intracellular calcium mobilization in TE-671 cells (flow apparatus, FURA-2). The format is cell-based. In general terms: Calcium flux is commonly read through the fluorescence of an indicator in the cells.

Where a SMILES comes first, the peptide text is derived from it. [ ]: non-standard residue; d: D form.

Protocol: TE-671 cells, human medulloblastoma (ATCC CRL 8805), naturally express endothelin subtype A receptor ETAR.
The apparatus was a negative pressure computer controlled unit as described above. This run was performed in the presence of several concentrations of ETAR specific competitive antagonist BQ-123 (shown in nanomolar concentration).
TE-671 cells were prepared for use in the cell physiometer of the present invention by growing them in a T75 flask until confluence. The growth media was decanted and the cells were washed twice with Dulbecco's phosphate buffered saline (DPBS) and supplemented with a fresh DPBS containing 2 μM FURA-2AM, which easily penetrates into cell cytoplasm and is hydrolyzed there with nonspecific esterases to form FURA 2, a dye which is sensitive to the ionized form of calcium. After 30 min incubation, the cells were supplemented with the equal volume of fresh DPBS and incubated for further 30 min. The cells, now loaded with the dye, were detached from the flask bottom with 0.05% Trypsin-EDTA solution. The cells were then washed twice with DPBS, containing 0.1% soybean trypsin inhibitor, and resuspended in calcium-free, magnesium-free and phenol red-free Dulbecco's modified Eagle's medium (DMEM).
This gives three fold final dilution for each component of the flow passing through mixing zone 343 and eventually, detector 355. The proportioning valve 327, was programmed for the first, second and third runs to give final BQ-123 concentration of zero, 10 nM and 40 nM, respectively.
The flow rate and the length of the reaction developing line were chosen so that the time interval from the point of mixing the cells with the compound to the point of signal detection in the flow-through optical cell was 40 seconds.

`CC(C)C[C@@H]1NC(=O)[C@@H](C(C)C)NC(=O)[C@@H]2CCCN2C(=O)[C@@H](CC(=O)O)NC(=O)[C@@H](Cc2c[nH]c3ccccc23)NC1=O` [BQ-123] (cyclo(L[dW][dD]P[dV])): the Kb was 11 nM. The “type of inhibition (shift of ET-1 activation curves)” value (TE-671 cells, activation curves parallel shifted to the right in the presence of BQ-123) is on record as “competitive type of inhibition”. In addition, where the note is “TE-671 cells, corresponds to the pA2 value, read-out: inhibition constant, K1”, the Ki came out at 11 nM.
